From patent publication US20240426776A1, “RAPID DIFFERENTIATION OF ANTIBIOTIC-SUSCEPTIBLE AND -RESISTANT BACTERIA THROUGH MEDIATED EXTRACELLULAR ELECTRON TRANSFER” (priority 2021, published 2024)
Values after ≈ are worked out from the molar mass of the structure shown. Values joined by “and” are separate entries in the source; they are usually repeats but may differ in a detail not shown here. Equal values may be shown once. Read-outs that look alike come from different tables or passages of the source.

Tests used:
[1] = test system: Klebsiella pneumoniae (strains 34 and 115); conditions: for ASIn (antibiotic susceptibility index), single replicates: imipenem 20× breakpoint (80 μg/mL), ASI20, 15 μM PMS, 0.1 OD600
Method: (§1) For initial quality control, cyclic voltammetry scan was recorded from 0.5 V to −0.5 V then back to 0.5 V using the potentiostat 13 configuration. The potentiostat controls the working electrode voltage relative to the reference electrode.
(§2) For antibiotic susceptibility experiments, the working electrode 6 was controlled at 0 VAg/AgCl. The current can also be measured and analyzed for determining resistance/susceptibility of pathogens to drugs (e.g., antibiotics) using other devices such as a multiplexer or any interface instrument that can receive one or more data inputs and forward it to an output for analysis and feedback. In particular, such one or more data inputs can be directed to a processor, signal processor, computer-based system, etc. and thereafter/correspondingly any such interface instrument can receive instructions from, such processing instruments as better detailed in the description for the embodiment of FIG. 14 below. It is also to be noted that any induced currents undergo a decision methodology that can be interpreted by such a configured processor, signal processor, computer-based system, etc. for aiding in the determination of antibiotic susceptibility/resistance, such as, the methodology better detailed in the description of FIG. 6 below.
Turning back to the discussion for FIG. 1B but also FIG. 1A, an initial baseline was established in the MH media, PMS, and antibiotic mixture for 50-60 min before inoculating the electrochemical cell with a bacteria cell 2. On placing the bacteria cell 2 (again see FIG. 1A) into the electrochemical cell 10, the bacteria cell 2 undergoes metabolic reactions and generates electrons 4 through metabolic processes, as was generally described above. […]
Tests disclosed in the example embodiments herein for the purpose of illustration were conducted with an inoculum of 0.1 OD600. A cell density equating to 0.1 OD600 was determined for each species by serial dilution. […] The colony forming units per mL (CFU/mL) were quantified using a drop plate method as known to those skilled in the art. […]

[2] = test system: Escherichia coli (strains 61 and 77); test: READAS electrochemical current response with PMS mediator (ASIn); format: cell-based; conditions: for ASIn (antibiotic susceptibility index), single replicates: ASI2, 15 μM PMS, 0.1 OD600
Method: as §1, §2
(§3) Turning back to the discussion for FIG. 1B but also FIG. 1A, an initial baseline was established in the MH media, PMS, and antibiotic mixture for 50-60 min before inoculating the electrochemical cell with a bacteria cell 2. On placing the bacteria cell 2 (again see FIG. 1A) into the electrochemical cell 10, the bacteria cell 2 undergoes metabolic reactions and generates electrons 4 through metabolic processes, as was generally described above. The electron transfer mediator used herein, e.g., PMS, thereafter, operates as an electron carrier in solution 3, and provides generated electrons 4 to the working electrode 6 (herein was aided by stirring mechanism 21, as shown in FIG. 1B). The working electrode 6 thus accepts the electrons provided by the reduced mediators (PMSr) so as to generate currents and returns the mediator back to its oxidized form ([…]) to keep the monitoring of respiration induced currents if viable.
(§4) Tests disclosed in the example embodiments herein for the purpose of illustration were conducted with an inoculum of 0.1 OD600. A cell density equating to 0.1 OD600 was determined for each species by serial dilution. Briefly, overnight cultures were adjusted to an OD600 of 0.1 and then serially diluted (10^0 to 10^−11) in a multi-well plate before transferring 10 μL of each dilution to separate TSA plates and grown overnight for 16-18 h. The colony forming units per mL (CFU/mL) were quantified using a drop plate method as known to those skilled in the art. Each measurement was replicated at least four times.
(§5) For performing example experimental tests disclosed in the embodiments herein for further reduction to practice, an overnight culture of the bacteria utilized was prepared. Such a culture was prepared by transferring, for example, two colonies from an agar streak plate into 8-ml MH broth and cultured overnight in an air incubator (37° C.) rotating at 120 rpm for 16-18 h. A 5-ml aliquot of culture was adjusted to 0.5 OD600 with fresh MH media and then centrifuged at 6000 rpm (4185×g) for 8 min and the supernatant decanted. The pellet was then resuspended in 5-mL of 30° C. (S. aureus experiments) or 37° C. (all others) MH media. After resuspension, 2 mL of the culture was used to verify optical density. Finally, 500 μL of the culture was inoculated to the electrochemical cuvettes by pipette through the cap inoculation port (2.5-ml final volume in the cuvette).
The magnitude of the current response was defined as the current magnitude at the inflection point between the exponential growth and the saturated current response.

[3] = test system: Klebsiella pneumoniae (strains 34 and 115); test: microbe, parasite or virus in culture; conditions: for MIC: Klebsiella pneumoniae, MH media, 16-18 h, 37° C.
Method: (§6) Testing for S. aureus susceptibility to oxacillin differed with incubation at 30° C. for 18-24 h in MH media supplemented with 2% NaCl.
(§7) Values listed in Table 2 below include the estimated minimum inhibitory concentration from this study (μg/mL), the determination of(S) sensitive or (R) resistant microbes according to CLSI criteria, and the CLSI guidelines (μg/mL) for the species being tested. Empty cells were not evaluated.

[4] = test system: Escherichia coli (strains 61 and 77); test: Microdilution antibiotic susceptibility assay (MIC, CLSI guidelines); format: cell-based; conditions: for MIC: Escherichia coli, MH media, 16-18 h, 37° C., read-out: estimated minimum inhibitory concentration from this study
Method: as §6, §7

[5] = test system: Acinetobacter baumannii (strains 35, 78, 83, and 102); test: as above; format: cell-based; conditions: for MIC: Acinetobacter baumannii, MH media, 16-18 h, 37° C., read-out: estimated minimum inhibitory concentration from this study
Method: as §6, §7

[6] = test system: Acinetobacter baumannii (strains 35, 78, 83, and 102); test: READAS electrochemical current response with PMS mediator (ASIn); format: cell-based; conditions: for ASIn (antibiotic susceptibility index), single replicates: ASI2, 15 μM PMS, 0.1 OD600
Method: as §1, §2, §3, §4, §5
It is to be noted that a CLSI resistance breakpoint concentration is a defined concentration of a susceptible antibiotic that treats the bacteria. […]

[7] = strain 78 (resistant), imipenem 2×CLSI resistance breakpoint
[8] = strain 102 (susceptible), imipenem 2×CLSI resistance breakpoint

Structure (SMILES): C[C@@H](O)[C@H]1C(=O)N2C(C(=O)O)=C(SCCN=CN)C[C@H]12 [Imipenem, imipenem]
- ASIn (antibiotic susceptibility index), single replicates ([1]; strain 34 (susceptible)): 0.56 and 0.88 and 0.67 and 0.58
- average ASI20 (±SE) ([1]; strain 115 (resistant), imipenem 20× (80 μg/mL)): 0.28±0.08
- ASIn (antibiotic susceptibility index), single replicates ([1]; strain 115 (resistant)): 0.32 and 0.47 and 0.18 and 0.17
- average ASI2 (±SE) ([2]; strain 61 (resistant), imipenem 2× (8 μg/mL)): −0.20±0.45
- ASIn (antibiotic susceptibility index), single replicates ([2]; strain 61 (resistant), imipenem 2× breakpoint (8 μg/mL)): 0.26 and −1.52 and 0.52 and −0.08
- average ASI2 (±SE) ([2]; strain 77 (susceptible), imipenem 2× (8 μg/mL)): 0.86±0.11
- ASIn (antibiotic susceptibility index), single replicates ([2]; strain 77 (susceptible), imipenem 2× breakpoint (8 μg/mL)): 0.98 and 0.97 and 0.96 and 0.54
- MIC ([3]; read-out: estimated minimum inhibitory concentration from this study, strain 34): 2 µg/mL (≈ 6.68 µM)
- MIC ([3]; read-out: estimated minimum inhibitory concentration from this study, strain 115): 64 µg/mL (≈ 214 µM)
- sensitive or resistant according to CLSI criteria ([3]; strain 34): S
- sensitive or resistant according to CLSI criteria ([3]; strain 115): R
- MIC ([4]; strain 61): 32 µg/mL (≈ 107 µM)
- MIC ([4]; strain 77): 0.5 µg/mL (≈ 1.67 µM)
- sensitive or resistant according to CLSI criteria ([4]; strain 61): R
- sensitive or resistant according to CLSI criteria ([4]; strain 77): S
- MIC ([5]; strain 78): 32 µg/mL (≈ 107 µM)
- MIC ([5]; strain 102): 1 µg/mL (≈ 3.34 µM)
- sensitive or resistant according to CLSI criteria ([5]; strain 78): R
- sensitive or resistant according to CLSI criteria ([5]; strain 102): S
- average ASI2 (average±SE) [6, 7]: 0.02±0.13
- ASIn (antibiotic susceptibility index), single replicates [6, 7]: 0.04 and −0.5 and 0.24 and 0.19 and 0.16
- average ASI2 (average±SE) [6, 8]: 0.47±0.08
- ASIn (antibiotic susceptibility index), single replicates [6, 8]: 0.37 and 0.36 and 0.67 and 0.31 and 0.65

Structure (SMILES): NC[C@H]1O[C@H](O[C@H]2[C@H](O)[C@@H](O[C@H]3O[C@H](CO)[C@@H](O)[C@H](N)[C@H]3O)[C@H](N)C[C@@H]2N)[C@H](N)C[C@@H]1O [Tobramycin, tobramycin]
- average ASI2 (±SE) ([2]; strain 61 (resistant), tobramycin 2× (32 μg/mL)): 0.17±0.1
- ASIn (antibiotic susceptibility index), single replicates ([2]; strain 61 (resistant), tobramycin 2× breakpoint (32 μg/mL)): 0.23 and 0.15 and 0.47 and 0.16 and −0.16
- average ASI2 (±SE) ([2]; strain 77 (susceptible), tobramycin 2× (32 μg/mL)): 0.62±0.15
- ASIn (antibiotic susceptibility index), single replicates ([2]; strain 77 (susceptible), tobramycin 2× breakpoint (32 μg/mL)): 0.92 and 0.4 and 0.86 and 0.33
- MIC ([4]; strain 61): 16 µg/mL (≈ 34.2 µM)
- MIC ([4]; strain 77): 0.5 µg/mL (≈ 1.07 µM)
- sensitive or resistant according to CLSI criteria ([4]; strain 61): R
- sensitive or resistant according to CLSI criteria ([4]; strain 77): S
- MIC ([5]; strain 35): 0.5 µg/mL (≈ 1.07 µM)
- MIC ([5]; strain 83): 128 µg/mL (≈ 274 µM)
- sensitive or resistant according to CLSI criteria ([5]; strain 35): S
- sensitive or resistant according to CLSI criteria ([5]; strain 83): R
- average ASI2 (average±SE) ([6]; strain 35 (susceptible), tobramycin 2×CLSI resistance breakpoint): 0.63±0.13
- ASIn (antibiotic susceptibility index), single replicates ([6]; strain 35 (susceptible), tobramycin 2×CLSI resistance breakpoint (32 μg/mL)): 0.48 and 1 and 0.4 and 0.64
- ASIn (antibiotic susceptibility index), single replicates ([6]; strain 35 (susceptible), tobramycin 2×CLSI resistance breakpoint (32 μg/mL), listed as tobramycin): 0.5
- average ASI2 (average±SE) ([6]; strain 83 (resistant), tobramycin 2×CLSI resistance breakpoint): 0.08±0.06
- ASIn (antibiotic susceptibility index), single replicates ([6]; strain 83 (resistant), tobramycin 2×CLSI resistance breakpoint (32 μg/mL)): −0.06 and −0.08 and 0.17 and 0.09 and 0.26
- ASIn (antibiotic susceptibility index), single replicates ([6]; strain 83 (resistant), tobramycin 2×CLSI resistance breakpoint (32 μg/mL), listed as tobramycin): 0.3
- decrease in current compared to the control ([6]; susceptible strain (35), tobramycin 2×CLSI resistance breakpoint, 32 μg/mL, FIG. 4A): 50%
